According to patent US12239643B2, “Therapeutic agent for inflammatory diseases, autoimmune diseases, fibrotic diseases, and cancer diseases” (MEIJI SEIKA PHARMA CO., LTD., priority 2018, dated 2025):

System: PDE4
Test: Evaluation of PDE4 inhibitory activity, scintillation proximity assay
Assay type: biochemical
Conditions: scintillation proximity assay; read-out: PDE4 Inhibitory Activity (Evaluation 1; concentration for the inhibition rate of 50%)
Outline: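 SPA with [2,8-3H]-cAMP and diluted PDE4 enzyme preparation in 50 mM Tris-HCl pH 7.4, 8.3 mM MgCl2, 1.7 mM EGTA, 3 mg/mL BSA, 120 min at room temperature. Product captured on ZnSO4-containing YSi-SPA beads, scintillation counted; IC50 from inhibition curves vs DMSO control and no-enzyme blank.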

SMILES	IC50
CC(O)C(F)(F)Oc1ccc(-c2cscn2)c2oc(N3CC4CC(C3)N4)nc12 (centres unmarked) [Example 309, 1-((2-(3,6-Diazabicyclo[3.1.1]heptan-3-yl)-7-(thiazol-4-yl)benzo[d]oxazol-4-yl)oxy)-1,1-difluoropropan-2-ol]	< 100 nM
CC(O)C(F)(F)Oc1ccc(-c2cscn2)c2oc(N3CC4CCC(C3)N4)nc12 (centres unmarked) [Example 310, 1-((2-(3,8-Diazabicyclo[3.2.1]octan-3-yl)-7-(thiazol-4-yl)benzo[d]oxazol-4-yl)oxy)-1,1-difluoropropan-2-ol]	< 100 nM
OCC(F)(F)Oc1ccc(-c2cscn2)c2oc(N3CC4CC(C3)N4)nc12 [Example 311, 2-((2-(3,6-Diazabicyclo[3.1.1]heptan-3-yl)-7-(thiazol-4-yl)benzo[d]oxazol-4-yl)oxy)-2,2-difluoroethan-1-ol]	< 100 nM
OCC(F)(F)Oc1ccc(-c2cscn2)c2oc(N3CC4CCC(C3)N4)nc12 [Example 312, 2-((2-(3,8-Diazabicyclo[3.2.1]octan-3-yl)-7-(thiazol-4-yl)benzo[d]oxazol-4-yl)oxy)-2,2-difluoroethan-1-ol]	< 100 nM
CC(C)(O)C(Oc1ccc(-c2nccs2)c2oc(N3CC4CC(C3)N4)nc12)C(F)(F)F (centres unmarked) [Example 313, 3-((2-(3,6-Diazabicyclo[3.1.1]heptan-3-yl)-7-(thiazol-2-yl)benzo[d]oxazol-4-yl)oxy)-4,4,4-trifluoro-2-methylbutan-2-ol]	< 100 nM
O=S1(=O)CCC(Oc2ccc(-c3nccs3)c3oc(N4CC5CC(C4)N5)nc23)CC1 [Example 314, 4-((2-(3,6-Diazabicyclo[3.1.1]heptan-3-yl)-7-(thiazol-2-yl)benzo[d]oxazol-4-yl)oxy)tetrahydro-2H-thiopyran 1,1-dioxide]	< 100 nM
OCC(F)(F)Oc1ccc(-n2cccn2)c2oc(N3CC4CC(C3)N4)nc12 [Example 320, 2-((2-(3,6-Diazabicyclo[3.1.1]heptan-3-yl)-7-(1H-pyrazol-1-yl)benzo[d]oxazol-4-yl)oxy)-2,2-difluoroethan-1-ol]	< 100 nM
c1csc(-c2ccc(C3CC3)c3nc(N4CC5CC(C4)N5)oc23)n1 [Example 344, 2-(3,6-Diazabicyclo[3.1.1]heptan-3-yl)-4-cyclopropyl-7-(thiazol-2-yl)benzo[d]oxazole]	< 100 nM
CSc1ccc(-c2nccs2)c2oc(N3CC4CC(C3)N4)nc12 [Example 345, 2-(3,6-Diazabicyclo[3.1.1]heptan-3-yl)-4-(methylthio)-7-(thiazol-2-yl)benzo[d]oxazole]	< 100 nM
C=CC(F)(F)Oc1ccc(-c2nccs2)c2oc(N3CC4CC(C3)N4)nc12 [Example 351, 2-(3,6-Diazabicyclo[3.1.1]heptan-3-yl)-4-((1,1-difluoroallyl)oxy)-7-(thiazol-2-yl)benzo[d]oxazole]	< 100 nM
O=C(NCc1ccccc1)c1ccc(-c2nccs2)c2oc(N3CC4CC(C3)N4)nc12 [Example 361, N-benzyl-2-(3,6-diazabicyclo[3.1.1]heptan-3-yl)-7-(thiazol-2-yl)benzo[d]oxazole-4-carboxamide]	< 100 nM
CC(C)C(O)C(F)(F)Oc1ccc(-c2nccs2)c2oc(N3CC4CC(C3)N4)nc12 (centres unmarked) [Example 362, 1-((2-(3,6-Diazabicyclo[3.1.1]heptan-3-yl)-7-(thiazol-2-yl)benzo[d]oxazol-4-yl)oxy)-1,1-difluoro-3-methylbutan-2-ol]	< 100 nM
O=C(O)c1ccc(-c2nccs2)c2oc(N3CC4CC(C3)N4)nc12 [Example 366, 2-(3,6-Diazabicyclo[3.1.1]heptan-3-yl)-7-(thiazol-2-yl)benzo[d]oxazole-4-carboxylic acid]	100 to 1000 nM
O=C(NO)c1ccc(-c2nccs2)c2oc(N3CC4CC(C3)N4)nc12 [Example 367, 2-(3,6-Diazabicyclo[3.1.1]heptan-3-yl)-N-hydroxy-7-(thiazol-2-yl)benzo[d]oxazole-4-carboxamide]	< 100 nM
CC(C)(O)c1cc(-c2nccs2)c2oc(N3CC4CCC(C3)N4O)nc2c1OC(F)(F)F [Example 368, 3-(5-(2-Hydroxypropan-2-yl)-7-(thiazol-2-yl)-4-(trifluoromethoxy)benzo[d]oxazol-2-yl)-3,8-diazabicyclo[3.2.1]octan-8-ol]	100 to 1000 nM
CC(C)(O)C(F)(F)Oc1ccc(-c2nccs2)c2oc(N3CC4CC(C3)N4O)nc12 [Example 371, 3-(4-(1,1-Difluoro-2-hydroxy-2-methylpropoxy)-7-(thiazol-2-yl)benzo[d]oxazol-2-yl)-3,6-diazabicyclo[3.1.1]heptan-6-ol]	< 100 nM
ON1C2CCC1CN(c1nc3c(OC(F)(F)F)c(Cl)cc(-c4nccs4)c3o1)C2 [Example 375, 3-(5-Chloro-7-(thiazol-2-yl)-4-(trifluoromethoxy)benzo[d]oxazol-2-yl)-3,8-diazabicyclo[3.2.1]octan-8-ol]	< 100 nM
CC(O)(O)C(F)(F)Oc1ccc(-c2nccs2)c2oc(N3CC4CC(C3)N4)nc12 [Example 377, 1-((2-(3,6-Diazabicyclo[3.1.1]heptan-3-yl)-7-(thiazol-2-yl)benzo[d]oxazol-4-yl)oxy)-1,1-difluoropropane-2,2-diol]	< 100 nM

SMILES	IC50
OC(c1ccc(-c2nccs2)c2oc(N3CC4CCC(C3)N4O)nc12)C(F)(F)F (centres unmarked) [Example 378, 3-(7-(Thiazol-2-yl)-4-(2,2,2-trifluoro-1-hydroxyethyl)benzo[d]oxazol-2-yl)-3,8-diazabicyclo[3.2.1]octan-8-ol]	100 to 1000 nM
OC(c1ccc(-c2nccs2)c2oc(N3CC4CCC(C3)N4O)nc12)C(F)(F)F (centres unmarked) [Example 379, 3-(7-(Thiazol-2-yl)-4-(2,2,2-trifluoro-1-hydroxyethyl)benzo[d]oxazol-2-yl)-3,8-diazabicyclo[3.2.1]octan-8-ol]	< 100 nM
ON1C2CC1CN(c1nc3c(OC(F)(F)F)ccc(-c4nccs4)c3o1)C2 [Example 380, 3-(7-(Thiazol-2-yl)-4-(trifluoromethoxy)benzo[d]oxazol-2-yl)-3,6-diazabicyclo[3.1.1]heptan-6-ol]	< 100 nM
CC(C)(O)c1cc(-c2nccs2)c2oc(N3CC4CCC(C3)N4O)nc2c1C(F)(F)F [Example 381, 3-(5-(2-Hydroxypropan-2-yl)-7-(thiazol-2-yl)-4-(trifluoromethyl)benzo[d]oxazol-2-yl)-3,8-diazabicyclo[3.2.1]octan-8-ol]	> 1000 nM
CC(O)c1cc(-c2nccs2)c2oc(N3CC4CCC(C3)N4O)nc2c1OC(F)(F)F (centres unmarked) [Example 383, 3-(5-(1-Hydroxyethyl)-7-(thiazol-2-yl)-4-(trifluoromethoxy)benzo[d]oxazol-2-yl)-3,8-diazabicyclo[3.2.1]octan-8-ol]	> 1000 nM
CC(O)c1cc(-c2nccs2)c2oc(N3CC4CCC(C3)N4O)nc2c1C(F)(F)F (centres unmarked) [Example 384, 3-(5-(1-Hydroxyethyl)-7-(thiazol-2-yl)-4-(trifluoromethyl)benzo[d]oxazol-2-yl)-3,8-diazabicyclo[3.2.1]octan-8-ol]	> 1000 nM
CNS(=O)(=O)c1ccc(-c2nccs2)c2oc(N3CC4CC(C3)N4)nc12 [Example 386, 2-(3,6-Diazabicyclo[3.1.1]heptan-3-yl)-N-methyl-7-(thiazol-2-yl)benzo[d]oxazole-4-sulfonamide]	< 100 nM
CN(C)S(=O)(=O)c1ccc(-c2nccs2)c2oc(N3CC4CC(C3)N4)nc12 [Example 388, 2-(3,6-Diazabicyclo[3.1.1]heptan-3-yl)-N,N-dimethyl-7-(thiazol-2-yl)benzo[d]oxazole-4-sulfonamide]	< 100 nM
CN(CCO)S(=O)(=O)c1ccc(-c2nccs2)c2oc(N3CC4CC(C3)N4)nc12 [Example 389, 2-(3,6-Diazabicyclo[3.1.1]heptan-3-yl)-N-(2-hydroxyethyl)-N-methyl-7-(thiazol-2-yl)benzo[d]oxazole-4-sulfonamide]	< 100 nM
O=S(=O)(c1ccc(-c2nccs2)c2oc(N3CC4CC(C3)N4)nc12)N1CCCC1 [Example 390, 2-(3,6-Diazabicyclo[3.1.1]heptan-3-yl)-4-(pyrrolidin-1-ylsulfonyl)-7-(thiazol-2-yl)benzo[d]oxazole]	< 100 nM
COC(C)(C)C(F)(F)Oc1ccc(-c2nccs2)c2oc(N3CC4CC(C3)N4)nc12 [Example 393, 2-(3,6-Diazabicyclo[3.1.1]heptan-3-yl)-4-(1,1-difluoro-2-methoxy-2-methylpropoxy)-7-(thiazol-2-yl)benzo[d]oxazole]	< 100 nM
NS(=O)(=O)c1ccc(-c2nccs2)c2oc(N3CC4CC(C3)N4)nc12 [Example 396, 2-(3,6-Diazabicyclo[3.1.1]heptan-3-yl)-7-(thiazol-2-yl)benzo[d]oxazole-4-sulfonamide]	< 100 nM
O=S1(=O)CCN(c2ccc(-c3nccs3)c3oc(N4CC5CC(C4)N5)nc23)CC1 [Example 398, 4-(2-(3,6-Diazabicyclo[3.1.1]heptan-3-yl)-7-(thiazol-2-yl)benzo[d]oxazol-4-yl)thiomorpholine 1,1-dioxide]	< 100 nM
CCC(F)(F)Oc1ccc(-c2nccs2)c2oc(N3CC4CC(C3)N4)nc12 [Example 402, 2-(3,6-Diazabicyclo[3.1.1]heptan-3-yl)-4-(1,1-difluoropropoxy)-7-(thiazol-2-yl)benzo[d]oxazole]	< 100 nM
FC(F)(Oc1ccc(-c2nccs2)c2oc(N3CC4CC(C3)N4)nc12)c1nc2ccccc2o1 [Example 403, 4-(Benzo[d]oxazol-2-yldifluoromethoxy)-2-(3,6-diazabicyclo[3.1.1]heptan-3-yl)-7-(thiazol-2-yl)benzo[d]oxazole]	< 100 nM
FC(F)(/C=C/c1cccnc1)Oc1ccc(-c2nccs2)c2oc(N3CC4CC(C3)N4)nc12 [Example 406, (E)-2-(3,6-diazabicyclo[3.1.1]heptan-3-yl)-4-((1,1-difluoro-3-(pyridin-3-yl)allyl)oxy)-7-(thiazol-2-yl)benzo[d]oxazole]	< 100 nM
CN(CCO)C(=O)C(F)(F)Oc1ccc(-c2nccs2)c2oc(N3CC4CC(C3)N4)nc12 [Example 407, 2-((2-(3,6-Diazabicyclo[3.1.1]heptan-3-yl)-7-(thiazol-2-yl)benzo[d]oxazol-4-yl)oxy)-2,2-difluoro-N-(2-hydroxyethyl)-N-methylacetamide]	< 100 nM
